Source: PMC12621043, “Un-LOK-ing a New Approach for Conformational Selective Targeting of STK10 (LOK)” (ACS Medicinal Chemistry Letters, 2025)

How the values were obtained:
Experiment in all cases: DSF Tm panel
Assay type in all cases: binding
Settings in all cases: 10 μM compound
FLT1A = target: T1, FLT1A (Homo sapiens, UniProt P17948)
T1 construct: purchased in-house DSF kinase panel (SGC-style construct names; the trailing letter is the construct ID)
T1 sequence (P17948 801-1158): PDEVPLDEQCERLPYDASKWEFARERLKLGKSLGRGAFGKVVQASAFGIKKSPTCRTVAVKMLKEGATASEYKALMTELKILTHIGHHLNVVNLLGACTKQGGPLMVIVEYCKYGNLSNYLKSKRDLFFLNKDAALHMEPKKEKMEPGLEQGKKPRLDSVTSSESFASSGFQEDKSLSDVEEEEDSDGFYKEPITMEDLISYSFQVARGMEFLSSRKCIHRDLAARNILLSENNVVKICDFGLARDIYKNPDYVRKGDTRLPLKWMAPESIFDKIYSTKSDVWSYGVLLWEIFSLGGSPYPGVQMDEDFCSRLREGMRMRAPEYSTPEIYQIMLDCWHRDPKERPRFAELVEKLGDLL

PHKG2A = target: T2, PHKG2A (Homo sapiens, UniProt P15735)
T2 construct: purchased in-house DSF kinase panel (SGC-style construct names; the trailing letter is the construct ID)
T2 sequence (P15735 6-293): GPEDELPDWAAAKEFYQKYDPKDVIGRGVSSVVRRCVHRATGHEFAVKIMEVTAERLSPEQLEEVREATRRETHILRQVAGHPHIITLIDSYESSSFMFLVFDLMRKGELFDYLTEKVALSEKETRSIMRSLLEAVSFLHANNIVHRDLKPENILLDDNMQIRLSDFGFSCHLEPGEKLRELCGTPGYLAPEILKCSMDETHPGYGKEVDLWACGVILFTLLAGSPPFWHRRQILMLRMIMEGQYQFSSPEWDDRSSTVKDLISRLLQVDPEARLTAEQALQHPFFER

TOPKA = target: T3, TOPKA (Homo sapiens, UniProt Q96KB5)
T3 construct: purchased in-house DSF kinase panel (SGC-style construct names; the trailing letter is the construct ID)
T3 sequence (Q96KB5 1-322): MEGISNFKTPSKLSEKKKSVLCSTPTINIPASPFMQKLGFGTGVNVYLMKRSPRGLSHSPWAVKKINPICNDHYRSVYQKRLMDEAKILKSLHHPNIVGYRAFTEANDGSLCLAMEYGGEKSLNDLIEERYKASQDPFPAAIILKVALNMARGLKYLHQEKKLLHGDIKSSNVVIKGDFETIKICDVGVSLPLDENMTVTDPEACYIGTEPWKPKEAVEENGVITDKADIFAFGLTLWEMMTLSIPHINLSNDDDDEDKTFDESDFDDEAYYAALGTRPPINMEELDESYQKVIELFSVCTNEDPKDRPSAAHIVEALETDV

RPS6KA6A = system: RPS6KA6A
NQO2A = target: T4, NQO2A (Homo sapiens, UniProt P16083)
T4 construct: purchased in-house DSF kinase panel (SGC-style construct names; the trailing letter is the construct ID)
T4 sequence (P16083 1-231): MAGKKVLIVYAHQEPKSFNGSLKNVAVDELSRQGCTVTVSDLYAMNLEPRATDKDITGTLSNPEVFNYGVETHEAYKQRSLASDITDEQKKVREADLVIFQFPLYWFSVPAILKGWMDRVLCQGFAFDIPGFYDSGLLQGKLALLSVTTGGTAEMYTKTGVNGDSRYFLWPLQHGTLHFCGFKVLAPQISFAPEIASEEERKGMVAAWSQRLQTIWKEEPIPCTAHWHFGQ

HIPK2HSF = target: T5, HIPK2HSF (Homo sapiens, UniProt Q9H2X6)
T5 construct: purchased in-house DSF kinase panel (SGC-style construct names; the trailing letter is the construct ID)

TLK1A = target: T6, TLK1A (Homo sapiens, UniProt Q9UKI8)
T6 construct: purchased in-house DSF kinase panel (SGC-style construct names; the trailing letter is the construct ID)
T6 sequence (Q9UKI8 456-734): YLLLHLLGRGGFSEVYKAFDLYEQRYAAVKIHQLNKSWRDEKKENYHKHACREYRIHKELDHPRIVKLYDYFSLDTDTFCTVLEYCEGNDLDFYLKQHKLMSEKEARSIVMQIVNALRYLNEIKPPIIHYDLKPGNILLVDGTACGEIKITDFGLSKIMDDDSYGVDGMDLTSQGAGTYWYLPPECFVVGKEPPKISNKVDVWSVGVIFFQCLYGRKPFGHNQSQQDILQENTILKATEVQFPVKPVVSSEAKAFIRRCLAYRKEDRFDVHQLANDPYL

CSNK1EA = target: T7, CSNK1EA (Homo sapiens, UniProt P49674)
T7 construct: purchased in-house DSF kinase panel (SGC-style construct names; the trailing letter is the construct ID)
T7 sequence (P49674 1-294): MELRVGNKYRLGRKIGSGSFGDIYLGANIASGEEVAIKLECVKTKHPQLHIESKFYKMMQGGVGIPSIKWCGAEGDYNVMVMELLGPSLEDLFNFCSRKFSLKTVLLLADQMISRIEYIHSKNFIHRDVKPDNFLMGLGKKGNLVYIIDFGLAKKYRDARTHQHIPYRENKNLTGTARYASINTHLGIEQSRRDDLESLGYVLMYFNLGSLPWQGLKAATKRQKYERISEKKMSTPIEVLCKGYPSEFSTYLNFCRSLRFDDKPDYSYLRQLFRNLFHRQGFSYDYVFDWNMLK

MAP2K7A = target: T8, MAP2K7A (Homo sapiens, UniProt O14733)
T8 construct: purchased in-house DSF kinase panel (SGC-style construct names; the trailing letter is the construct ID)
T8 sequence (O14733 120-400): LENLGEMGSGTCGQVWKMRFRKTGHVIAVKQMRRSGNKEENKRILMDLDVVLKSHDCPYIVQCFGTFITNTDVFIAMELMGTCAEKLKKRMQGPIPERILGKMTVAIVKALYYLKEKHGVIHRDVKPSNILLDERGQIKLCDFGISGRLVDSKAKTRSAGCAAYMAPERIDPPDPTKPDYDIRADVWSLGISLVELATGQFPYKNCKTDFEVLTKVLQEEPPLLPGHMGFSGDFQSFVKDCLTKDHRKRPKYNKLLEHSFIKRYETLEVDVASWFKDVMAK

T5 sequence (Q9H2X6 199-527): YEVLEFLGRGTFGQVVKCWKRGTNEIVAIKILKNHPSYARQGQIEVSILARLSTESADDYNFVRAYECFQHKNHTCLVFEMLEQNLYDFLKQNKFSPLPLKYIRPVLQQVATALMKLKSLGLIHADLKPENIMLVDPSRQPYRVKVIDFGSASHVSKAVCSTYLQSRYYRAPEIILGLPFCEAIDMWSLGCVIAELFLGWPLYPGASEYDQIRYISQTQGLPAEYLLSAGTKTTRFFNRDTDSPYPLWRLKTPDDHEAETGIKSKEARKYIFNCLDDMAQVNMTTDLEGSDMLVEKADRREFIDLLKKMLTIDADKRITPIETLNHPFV

SMILES	ΔTm at 10 µM (FLT1A) [°C]	ΔTm at 10 µM (PHKG2A) [°C]	ΔTm at 10 µM (TOPKA) [°C]	ΔTm RPS6KA6A (RPS6KA6A)	ΔTm at 10 µM (NQO2A) [°C]	ΔTm at 10 µM (HIPK2HSF) [°C]	ΔTm at 10 µM (TLK1A) [°C]	ΔTm at 10 µM (CSNK1EA) [°C]	ΔTm at 10 µM (MAP2K7A) [°C]
O=C(NCc1ccccc1)Nc1ccc2cc1OCCOCCNc1ccn3ncc-2c3n1 [compound 16]	4.7	1.3	0.4	-1,2 °C					
O=C(NCc1ccccc1Cl)Nc1ccc2cc1OCCOCCNc1ccn3ncc-2c3n1 [compound 17]	2.1	0.6	0.4	-0,3 °C					
O=C(NCc1cccc(Cl)c1)Nc1ccc2cc1OCCOCCNc1ccn3ncc-2c3n1 [compound 18]	3.7	0.4	0.5	-0,3 °C					
O=C(NCc1ccc(Cl)cc1)Nc1ccc2cc1OCCOCCNc1ccn3ncc-2c3n1 [compound 19]	3.4	1.2	0.2	-0,2 °C					
O=C(NCc1ccc(Cl)cc1Cl)Nc1ccc2cc1OCCOCCNc1ccn3ncc-2c3n1 [compound 20]	1.4	0.8	1.2	0,5 °C					
O=C(NCc1ccc(Cl)cc1F)Nc1ccc2cc1OCCOCCNc1ccn3ncc-2c3n1 [compound 21]	2.6	0.9	0.6	-0,7 °C					
Cc1cc(Cl)ccc1CNC(=O)Nc1ccc2cc1OCCOCCNc1ccn3ncc-2c3n1 [compound 23]	2	0.5	1.5	-0,3 °C					
Cc1cc(Br)ccc1CNC(=O)Nc1ccc2cc1OCCOCCNc1ccn3ncc-2c3n1 [compound 24]					-1.9	0.2	1	0.7	0.3
Cc1ccc(F)cc1CNC(=O)Nc1ccc2cc1OCCOCCNc1ccn3ncc-2c3n1 [compound 26]					-1.5	0.4	0.9	0.7	0.1
O=C(NCc1ccccc1C(F)(F)F)Nc1ccc2cc1OCCOCCNc1ccn3ncc-2c3n1 [compound 27]					-4.1	0.2	1.3	0	1
O=C(NCc1ccc(C(F)(F)F)cc1)Nc1ccc2cc1OCCOCCNc1ccn3ncc-2c3n1 [compound 28]					-2.7	0.6	1.6	-0.2	1.1
COc1ccccc1CNC(=O)Nc1ccc2cc1OCCOCCNc1ccn3ncc-2c3n1 [compound 29]					-0.5	0.5	0.4	0.7	0.1
COc1cccc(CNC(=O)Nc2ccc3cc2OCCOCCNc2ccn4ncc-3c4n2)c1 [compound 30]					-0.5	0.4	0.7	0.7	0.1
COc1ccc(CNC(=O)Nc2ccc3cc2OCCOCCNc2ccn4ncc-3c4n2)cc1 [compound 31]					-0.6	0.5	1.1	0.6	0.5
COc1ccc(CNC(=O)Nc2ccc3cc2OCCOCCNc2ccn4ncc-3c4n2)cc1F [compound 32]					-2.8	0.5	1.2	0.3	0.5
COc1cc(CNC(=O)Nc2ccc3cc2OCCOCCNc2ccn4ncc-3c4n2)ccc1F [compound 33]					-1.5	0.5	0.9	0.6	0
C[C@H](NC(=O)Nc1ccc2cc1OCCOCCNc1ccn3ncc-2c3n1)c1ccccc1 [compound 34]					-0.5	0.4	0.4	0.4	0
CN1CCN(C(=O)Nc2ccc3cc2OCCOCCNc2ccn4ncc-3c4n2)CC1 [compound 35]	4.4	-0.1	-0.4	-0,3 °C					
